# Key:
# [1] = tested on: ovarian cancer; settings: clinical studies, phase as stated; cited from earlier work
# [2] = molecular target: HLA-A*02:01 (Homo sapiens, UniProt P04439, D140Y/D185E/D98H/E176V/E277Q/G131W/G231S/I119V/I121R/I166T/I218V/L300P/L318F/N151K/N90K/P208A/P217A/Q86G/Q94H/R138H/R169H/T345S); experiment: MHC binding assay (UV-ligand exchange, β2m ELISA, peptide exchange yield); settings: MHC class I binding score; binding to HLA-A*02:01 ranged by peptide exchange yield (UV-ligand exchange, β2m ELISA)
# Summary of the method: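 Binding is expressed as peptide exchange yield: stabilized MHC complexes were quantified by β2m ELISA, with a 450 nm TMB read-out on streptavidin-coated plates. Complexes came from UV-ligand exchange, where UV irradiation cleaves a photolabile peptide so the candidate peptide can load.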
# [3] = tested on: CD8+ T cells; experiment: In vitro T-cell priming (immunogenicity) with aAPCs loaded with peptide/MHC and anti-CD28, pMHC multimer readout; type: cell-based, human; settings: in vitro immunogenicity; HLA-A*02 restricted peptides; positive wells among evaluable
# Text: In order to obtain information regarding the immunogenicity of the TUMAPs of the present invention, the inventors performed investigations using an in vitro T-cell priming assay based on repeated stimulations of CD8+ T cells with artificial antigen presenting cells (aAPCs) loaded with peptide/MHC complexes and anti-CD28 antibody.
# In order to perform in vitro stimulations by artificial antigen presenting cells loaded with peptide-MHC complex (pMHC) and anti-CD28 antibody, the inventors first isolated CD8+ T cells from fresh HLA-A*02 leukapheresis products via positive selection using CD8 microbeads (Miltenyi Biotec, Bergisch-Gladbach, Germany) of healthy donors obtained from the University clinics Mannheim, Germany, after informed consent.
# PBMCs and isolated CD8+ lymphocytes were incubated in T-cell medium (TCM) until use consisting of RPMI-Glutamax (Invitrogen, Karlsruhe, Germany) supplemented with 10% heat inactivated human AB serum (PAN-Biotech, Aidenbach, Germany), 100 U/ml Penicillin/100 μg/ml Streptomycin (Cambrex, Cologne, Germany), 1 mM sodium pyruvate (CC Pro, Oberdorla, Germany), 20 μg/ml Gentamycin (Cambrex). 2.5 ng/ml IL-7 (PromoCell, Heidelberg, Germany) and 10 U/ml IL-2 (Novartis Pharma, Nürnberg, Germany) were also added to the TCM at this step.
# Generation of pMHC/anti-CD28 coated beads, T-cell stimulations and readout was performed in a highly defined in vitro system using four different pMHC molecules per stimulation condition and 8 different pMHC molecules per readout condition.
# The purified co-stimulatory mouse IgG2a anti human CD28 Ab 9.3 (Jung et al., 1987) was chemically biotinylated using Sulfo-N-hydroxysuccinimidobiotin as recommended by the manufacturer (Perbio, Bonn, Germany). Beads used were 5.6 μm diameter streptavidin coated polystyrene particles (Bangs Laboratories, Illinois, USA).
# pMHC used for positive and negative control stimulations were A*0201/MLA-001 (peptide […] (SEQ ID NO. 664) from modified Melan-A/MART-1) and A*0201/DDX5-001 ([…] from DDX5, SEQ ID NO. 665), respectively.
# 800.000 beads/200 μl were coated in 96-well plates in the presence of 4×12.5 ng different biotin-pMHC, washed and 600 ng biotin anti-CD28 were added subsequently in a volume of 200 μl. Stimulations were initiated in 96-well plates by co-incubating 1×10^6 CD8+ T cells with 2×10^5 washed coated beads in 200 μl TCM supplemented with 5 ng/ml IL-12 (PromoCell) for 3 days at 37° C. Half of the medium was then exchanged by fresh TCM supplemented with 80 U/ml IL-2 and incubating was continued for 4 days at 37° C. This stimulation cycle was performed for a total of three times. For the pMHC multimer readout using 8 different pMHC molecules per condition, a two-dimensional combinatorial coding approach was used as previously described (Andersen et al., 2012) with minor modifications encompassing coupling to 5 different fluorochromes. Finally, multimeric analyses were performed by staining the cells with Live/dead near IR dye (Invitrogen, Karlsruhe, Germany), CD8-FITC antibody clone SK1 (BD, Heidelberg, Germany) and fluorescent pMHC multimers. For analysis, a BD LSRII SORP cytometer equipped with appropriate lasers and filters was used. Peptide specific cells were calculated as percentage of total CD8+ cells. Evaluation of multimeric analysis was done using the FlowJo software (Tree Star, Oregon, USA). In vitro priming of specific multimer+CD8+ lymphocytes was detected by comparing to negative control stimulations.
# Exemplary flow cytometry results after TUMAP-specific multimer staining for two peptides of the invention are shown in FIG. 3 together with corresponding negative controls.
Peptide exchange [2],Substance,clinical effect in ovarian cancer patients [1],Wells positive [%] [3]
–,MORAb-003: anti-folate receptor alpha antibody,limited clinical benefit,–
–,oregovomab,promising results,–
–,bevacizumab: anti-VEGF antibody,appears to be advantageous,–
″++++″ (≧75% = ++++),108 (ALFPGVALLLA; listed as Homo sapiens) [compound 108],–,″++″ (20%-49% = ++)
″++″ (≧20% = ++),36 (YVLEDLEVTV; listed as Homo sapiens) [compound 36],–,″+″ (<20% = +)
″+++″ (≧50% = +++),166 (YLNHLEPPV; listed as Homo sapiens) [compound 166],–,″++++″ (> = 70% = ++++)
″+++″ (≧50% = +++),454 (KLPPPPPQA; listed as Homo sapiens) [compound 454],–,″++″ (20%-49% = ++)
″++++″ (≧75% = ++++),61 (FLQGYQLHL; listed as Homo sapiens) [compound 61],–,″++″ (20%-49% = ++)
″+++″ (≧50% = +++),113 (GLLPTPLFGV; listed as Homo sapiens) [compound 113],–,″+″ (<20% = +)
″+++″ (≧50% = +++),199 (ALQDVPLSSV; listed as Homo sapiens) [compound 199],–,″+″ (<20% = +)
″+++″ (≧50% = +++),11 (KIFEMLEGV; listed as Homo sapiens) [compound 11],–,″+″ (<20% = +)
″+++″ (≧50% = +++),118 (KLIDNNINV; listed as Homo sapiens) [compound 118],–,″+″ (<20% = +)
–,"Ipilimumab: anti-CTLA4 antibody, which enhances T cell activity",significant anti-tumor effects,–
–,catumaxomab,promising results,–
″+++″ (≧50% = +++),215 (QLINHLHAV; listed as Homo sapiens) [compound 215],–,″++″ (20%-49% = ++)
″++″ (≧20% = ++),603 (FLIEPEHVNTV; listed as Homo sapiens) [compound 603],–,″+″ (<20% = +)
″+++″ (≧50% = +++),2 (SLLEADPFL; listed as Homo sapiens) [compound 2],–,″+″ (<20% = +)
″++++″ (≧75% = ++++),56 (KLYEGIPVLL; listed as Homo sapiens) [compound 56],–,″+″ (<20% = +)

# — US20170037111A1, “Novel peptides and combination of peptides for use in immunotherapy against ovarian cancer and other cancers” (immatics biotechnologies GmbH, priority 2015, published 2017)
